The supplement of paper PMC6045584
± gives the standard deviation of the averaged measurements.

How the values were obtained:
[1] = compound: CC(=O)NCC(=O)N1[C@@H]2CC[C@H]1c1ccc(Nc3ncc(C(F)(F)F)c(NC4CCC4)n3)cc12; experiment: surviving fraction relative to DMSO-only wells; higher = less growth inhibition; conditions: exposure time: 5 days
Method in brief: (§1)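 Each tumour cell line was screened three times, and only lines with replicate Pearson r >0.7 and median Z' >0.3 were kept. Cells in log phase were seeded at 250–500 per well in 384-well plates, left 24 hours, then exposed continuously for five days to inhibitors at 0.5, 1, 5, 10, 50, 100, 500 and 1000 nM. Viability was read as CellTiter-Glo luminescence, with surviving fraction normalised to the median of DMSO-only wells.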

CARBOPLATIN = compound: O=C(O)C1(C(=O)O)CCC1.[NH2-].[NH2-].[Pt+2] [CARBOPLATIN]; experiment: as above; conditions: exposure time: 5 days
Method in brief: as §1

Test System	surviving fraction ([1]; 0.5 nM)	surviving fraction ([1]; 1 nM)	surviving fraction ([1]; 5 nM)	surviving fraction ([1]; 10 nM)	surviving fraction ([1]; 50 nM)	surviving fraction ([1]; 100 nM)	surviving fraction ([1]; 500 nM)	surviving fraction ([1]; 1000 nM)	surviving fraction (CARBOPLATIN; 0.5 nM)	surviving fraction (CARBOPLATIN; 1 nM)	surviving fraction (CARBOPLATIN; 5 nM)	surviving fraction (CARBOPLATIN; 10 nM)	surviving fraction (CARBOPLATIN; 50 nM)	surviving fraction (CARBOPLATIN; 100 nM)	surviving fraction (CARBOPLATIN; 500 nM)	surviving fraction (CARBOPLATIN; 1000 nM)
YAMATO SYNOVIAL	1.06 ± 0.048	1.02 ± 0.049	1.1 ± 0.061	1.14 ± 0.058	0.994 ± 0.005	0.738 ± 0.023	0.622 ± 0.022	0.543 ± 0.058	1.17 ± 0.066	1.33 ± 0.069	1.34 ± 0.11	1.31 ± 0.051	1.34 ± 0.029	1.29 ± 0.11	1.248 ± 0.0092	1.29 ± 0.051
MDAMB361 BREAST	0.96 ± 0.044	0.939 ± 0.041	0.88 ± 0.038	0.873 ± 0.02	0.922 ± 0.11	1.1 ± 0.05	1.09 ± 0.075	0.928 ± 0.093	0.791 ± 0.041	0.821 ± 0.11	0.808 ± 0.043	0.762 ± 0.029	0.873 ± 0.062	0.754 ± 0.1	0.798 ± 0.046	0.785 ± 0.028
KPD BONE	0.977 ± 0.019	0.987 ± 0.026	0.991 ± 0.07	1.04 ± 0.093	0.903 ± 0.003	0.737 ± 0.033	0.346 ± 0.009	0.124 ± 0.0044	1.02 ± 0.032	1.07 ± 0.065	1.12 ± 0.033	1.05 ± 0.051	1.09 ± 0.02	1.1 ± 0.05	1.04 ± 0.084	1.03 ± 0.016
CADOES1 SOFT TISSUE	0.969 ± 0.1	0.955 ± 0.099	0.883 ± 0.094	0.849 ± 0.1	0.565 ± 0.074	0.109 ± 0.011	0.0853 ± 0.005	0.0867 ± 0.0065	0.992 ± 0.13	0.966 ± 0.11	0.934 ± 0.052	0.987 ± 0.15	0.96 ± 0.11	0.962 ± 0.078	1.1 ± 0.11	1.02 ± 0.11
DU4475 BREAST	0.776 ± 0.12	0.802 ± 0.15	0.821 ± 0.16	0.783 ± 0.2	0.49 ± 0.36	0.131 ± 0.097	0.0413 ± 0.016	0.0397 ± 0.0038	1.03 ± 0.064	0.931 ± 0.032	1.08 ± 0.23	1.04 ± 0.089	0.909 ± 0.029	0.975 ± 0.18	0.895 ± 0.06	1.03 ± 0.035
HMT3552 BREAST	1.16	1.06	1.01	0.934	0.148	0.47	0.121	0.116	1.03 ± 0.063	0.996 ± 0.11	1.02 ± 0.032	1.03 ± 0.065	1.205 ± 0.0096	1.17 ± 0.059	1.25 ± 0.031	1.14 ± 0.088
LM7 BONE	0.965 ± 0.032	0.951 ± 0.058	1.04 ± 0.051	1.02 ± 0.011	0.921 ± 0.067	0.642 ± 0.037	0.25 ± 0.024	0.13 ± 0.007	1.06 ± 0.017	1.07 ± 0.051	1.09 ± 0.076	1.05 ± 0.028	1.11 ± 0.064	1.08 ± 0.094	1 ± 0.028	1.02 ± 0.018
VCAP PROSTATE	1.06 ± 0.051	1.05 ± 0.086	1.08 ± 0.11	0.935 ± 0.053	0.681 ± 0.075	0.603 ± 0.016	0.433 ± 0.021	0.327 ± 0.038	1.04 ± 0.067	0.996 ± 0.04	1.11 ± 0.072	1.09 ± 0.11	1.05 ± 0.13	1.21 ± 0.086	1.05 ± 0.07	1.04 ± 0.18
HOS BONE	1.03 ± 0.013	1.013 ± 0.0087	1.01 ± 0.025	1.006 ± 0.0098	0.719 ± 0.025	0.675 ± 0.025	0.585 ± 0.03	0.485 ± 0.012	1.06 ± 0.013	1.05 ± 0.02	1.04 ± 0.03	1.04 ± 0.02	1.15 ± 0.05	1.11 ± 0.033	1.07 ± 0.02	1.068 ± 0.0086
HS57T BREAST	0.907 ± 0.056	0.894 ± 0.049	0.955 ± 0.0027	0.94 ± 0.044	0.633 ± 0.069	0.535 ± 0.025	0.443 ± 0.013	0.414 ± 0.019	1.03 ± 0.015	1.08 ± 0.11	1.09 ± 0.028	1.12 ± 0.029	1.11 ± 0.084	1.08 ± 0.033	1.07 ± 0.092	1.05 ± 0.054
MDAMB453 BREAST	1.03 ± 0.021	1.05 ± 0.034	1.01 ± 0.046	1.07 ± 0.032	0.794 ± 0.091	0.725 ± 0.094	0.541 ± 0.038	0.413 ± 0.015	1.07 ± 0.068	1.05 ± 0.07	1.15 ± 0.024	1.1 ± 0.076	1.07 ± 0.018	1.1 ± 0.069	1.01 ± 0.02	0.993 ± 0.011
